Measured values taken from PubChem BioAssay (NCI).
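Values below derive from 48-hour exposures of cells grown in 96-well plates, with endpoints linearly interpolated between the two concentrations bracketing the appropriate inhibition level. Here, GI50 denotes the concentration required for 50% inhibition of growth. TGI is the concentration that stops growth completely.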

Key:
Test in all cases: inhibition of tumour cell growth, NCI panel, 48 h
[1] = test system: SN12C renal
[2] = test system: DU-145 prostate
[3] = test system: IGROV1 ovarian
[4] = test system: PC-3 prostate
[5] = test system: SF-268 CNS
[6] = test system: HT29 colon
[7] = test system: KM12 colon
[8] = test system: NCI-H460 lung
[9] = test system: NCI-H226 lung
[10] = test system: NCI-H522 lung

Row | Compound | TGI [1] [µM] | TGI [2] [µM] | TGI [3] [µM] | TGI [4] [µM] | TGI [5] [µM] | TGI [6] [µM] | TGI [7] [µM] | TGI [8] [µM] | TGI [9] [µM] | TGI [10] [µM] | GI50 [1] [µM] | GI50 [2] [µM] | GI50 [3] [µM] | GI50 [4] [µM] | GI50 [5] [µM] | GI50 [6] [µM] | GI50 [7] [µM] | GI50 [8] [µM] | GI50 [9] [µM] | GI50 [10] [µM]
1 | CN(C)CCOc1ccc(I)cc1Cc1ccccc1 | 25 | 31.6 | 17.4 | 20.5 | 27.4 | 17 | 27 | 26.8 | 33.9 | 25 | – | – | – | – | – | – | – | – | – | –
2 | CC(C)Nc1[nH]c(C(=O)c2ccccc2)c(N)c1C(=S)Nc1ccccc1 | > 100 | > 100 | > 100 | > 100 | > 100 | 91.3 | > 100 | > 100 | > 100 | > 100 | – | – | – | – | – | – | – | – | – | –
3 | Cc1cc2nc(N3C(=O)/C(=C/c4cccc([N+](=O)[O-])c4)N=C3c3ccccc3)sc2cc1C | > 100 | > 100 | > 100 | 56.5 | > 100 | 75.9 | > 100 | > 100 | – | – | – | – | – | – | – | – | – | – | – | –
4 | O=C1/C(=C\c2ccc([N+](=O)[O-])cc2)Sc2scc(-c3ccc(O)c(O)c3)[n+]21 | 50 | 37.2 | 19.7 | 19.4 | 21 | 15.7 | 27.6 | 16.5 | > 100 | 5.34 | – | – | – | – | – | – | – | – | – | –
5 | CNNC1=NS(=O)(=O)c2cc(C)c(Cl)cc2S1 | > 10 | > 10 | > 10 | > 10 | > 10 | > 10 | > 10 | > 10 | > 10 | > 10 | – | – | – | – | – | – | – | – | – | –
6 | O=C(O)C(Cc1ccc2c(c1)CCC2)(Cc1ccc2c(c1)CCC2)C(=O)O | > 100 | > 100 | > 100 | > 100 | > 100 | > 100 | > 100 | > 100 | > 100 | > 100 | – | – | – | – | – | – | – | – | – | –
7 | CCOc1ccc2ccccc2c1NC1=NCCO1 | > 100 | > 100 | > 100 | – | > 100 | > 100 | 76.7 | 57.7 | 85.4 | – | – | – | – | – | – | – | – | – | – | –
8 | CC[C@@H]1CN2CCC1C[C@@H]2C(O)c1ccnc2ccc(OCCN3CCN(CCOc4ccc5nccc(C(O)[C@@H]6C[C@@H]7CCN6C[C@@H]7CC)c5c4)CC3)cc12 (some centres not stated) | 28.9 | 31.8 | 36.7 | 30.3 | 41.2 | 30.2 | 34 | 38.4 | – | 61.8 | – | – | – | – | – | – | – | – | – | –
9 | CC[C@@H](CCCC[C@@H]1CC[C@H]2CC(=O)C[C@@H]12)OC | > 100 | > 100 | > 100 | > 100 | > 100 | > 100 | > 100 | > 100 | > 100 | > 100 | – | – | – | – | – | – | – | – | – | –
10 | COc1ccc(NC(=O)CC(=O)n2nc(C)c(N=Nc3ccc(C)c(C)c3)c2C)cc1 | > 100 | > 100 | > 100 | > 100 | > 100 | > 100 | > 100 | > 100 | > 100 | > 100 | – | – | – | – | – | – | – | – | – | –
11 | O=C1NCC2(CCNCC2)N1c1ccccc1 | > 100 | > 100 | > 100 | > 100 | > 100 | > 100 | > 100 | > 100 | > 100 | > 100 | – | – | – | – | – | – | – | – | – | –
12 | CN1CCN(c2nc3ccccc3nc2C(=O)c2ccc(Cl)cc2)CC1 | – | > 100 | > 100 | > 100 | > 100 | > 100 | > 100 | 80.2 | – | > 100 | – | – | – | – | – | – | – | – | – | –
13 | COc1ccc2c(c1)c1nn(CCN(C)C)c3ccc4c(=O)n(CCN(C)C)c(=O)n2c4c13 | 0.517 | 0.603 | 1.65 | 0.262 | 0.211 | – | 0.481 | 0.0142 | 1.1 | 0.0747 | – | – | – | – | – | – | – | – | – | –
14 | O=S(=O)(c1cc(Cl)ccc1Cl)N1CCN(c2ccc(Cl)c(Cl)c2)CC1 | > 100 | > 100 | > 100 | > 100 | 85.9 | > 100 | > 100 | – | 54.1 | 56.5 | – | – | – | – | – | – | – | – | – | –
15 | O=C(NCCN1C(=O)CN=C(c2ccc(Cl)cc2)c2cc(Cl)ccc21)OCc1ccccc1 | 28.7 | 37.7 | 37.8 | 28.3 | 29.9 | 31.8 | 32.4 | 32.4 | 35.5 | 49.9 | – | – | – | – | – | – | – | – | – | –
16 | CC(=O)N1c2ccccc2C(C)(C)OC1C(Cl)(Cl)Cl (configuration not stated) | > 100 | > 100 | > 100 | > 100 | > 100 | > 100 | > 100 | > 100 | > 100 | 69.3 | – | – | – | – | – | – | – | – | – | –
17 | COc1ccc(/C=C2\CN(C(=O)CCN3CCC(=NO)CC3)C/C(=C\c3ccc(OC)cc3)C2=O)cc1 | 5.92 | 3.67 | 4.36 | 4.74 | – | 4.45 | 3.71 | 6.74 | 7.54 | 5.5 | 2.27 | 1.9 | 1.94 | 2 | 2.84 | 2.04 | 1.74 | 2.63 | 2.51 | 2.17
18 | O/N=c1/ccn(O)c2ccccc12 | 5.7 | 7.76 | 5.12 | 8.88 | 5.74 | 4.24 | 5.25 | 3.67 | 7.14 | 3.23 | – | – | – | – | – | – | – | – | – | –
19 | O=C1Nc2cccc3ncn(c23)C2=C1CCCC2 | > 100 | – | > 100 | – | > 100 | – | > 100 | > 100 | – | > 100 | – | – | – | – | – | – | – | – | – | –
20 | O=C1CC2CC=C[C@H]3c4cc5c(cc4C(=O)N1C23)OCO5 (some centres not stated) | > 50 | – | > 50 | – | > 50 | > 50 | > 50 | > 50 | > 50 | > 50 | – | – | – | – | – | – | – | – | – | –
21 | O=C(O)C(CS)NCc1c2ccccc2[n+]([O-])c2ccccc12 (configuration not stated) | > 100 | – | > 100 | – | 91.3 | > 100 | > 100 | > 100 | > 100 | > 100 | – | – | – | – | – | – | – | – | – | –
